≈ marks a conversion by molar mass, not a printed value.
What was measured:
Assay type in all cases: functional
Sporothrix schenckii [1] = assay: Antifungal activity against Sporothrix schenckii P30019 isolate from cutaneous-lymphatic sporotrichosis patient after 72 hrs by ATB Fungus 2 method
Sporothrix schenckii [2] = assay: Antifungal activity against Sporothrix schenckii P30019 isolate from cutaneous-lymphatic sporotrichosis patient after 72 hrs by Sensititre YeastOne method
Sporothrix schenckii [3] = assay: Antifungal activity against Sporothrix schenckii P20825 isolate from cutaneous-lymphatic sporotrichosis patient after 72 hrs by ATB Fungus 2 method
Sporothrix schenckii [4] = assay: Antifungal activity against Sporothrix schenckii P3287 isolate from cutaneous-lymphatic sporotrichosis patient after 72 hrs by Sensititre YeastOne method
Sporothrix schenckii [5] = assay: Antifungal activity against Sporothrix schenckii P25013 isolate from cutaneous-lymphatic sporotrichosis patient after 72 hrs by Sensititre YeastOne method
Sporothrix schenckii [6] = assay: Antifungal activity against Sporothrix schenckii MRSS4 isolate from cutaneous-lymphatic sporotrichosis patient after 72 hrs by ATB Fungus 2 method
Sporothrix schenckii [7] = assay: Antifungal activity against Sporothrix schenckii PSSA81 isolate from cutaneous-lymphatic sporotrichosis patient after 72 hrs by Sensititre YeastOne method
Sporothrix schenckii [8] = assay: Antifungal activity against Sporothrix schenckii SSA29 isolate from cutaneous-lymphatic sporotrichosis patient after 72 hrs by Sensititre YeastOne method
Candida parapsilosis [9] = assay: Antifungal activity against Candida parapsilosis ATCC 22019 […] after 72 hrs by modified NCCLS M38-A method; settings: Lodderomyces parapsilosis, ATCC 22019, 72 h
Sporothrix schenckii [10] = assay: Antifungal activity against Sporothrix schenckii P14954 isolate from cutaneous-lymphatic sporotrichosis patient after 72 hrs by ATB Fungus 2 method
Pichia kudriavzevii [11] = assay: Antifungal activity against Candida krusei ATCC 6258 […] after 72 hrs by modified NCCLS M38-A method; settings: ATCC 6258, 72 h
Sporothrix schenckii [12] = assay: Antifungal activity against Sporothrix schenckii P24255 isolate from cutaneous-lymphatic sporotrichosis patient after 72 hrs by ATB Fungus 2 method
Sporothrix schenckii [13] = assay: Antifungal activity against Sporothrix schenckii P30019 isolate from cutaneous-lymphatic sporotrichosis patient after 72 hrs by modified NCCLS M38-A method
Sporothrix schenckii [14] = assay: Antifungal activity against Sporothrix schenckii PGAC0016 isolate from cutaneous-lymphatic sporotrichosis patient after 72 hrs by ATB Fungus 2 method
Pichia kudriavzevii [15] = assay: Antifungal activity against Candida krusei ATCC 6258 […] after 72 hrs by Sensititre YeastOne method; settings: ATCC 6258, 72 h
Sporothrix schenckii [16] = assay: Antifungal activity against Sporothrix schenckii P20825 isolate from cutaneous-lymphatic sporotrichosis patient after 72 hrs by Sensititre YeastOne method
Sporothrix schenckii [17] = assay: Antifungal activity against Sporothrix schenckii P3287 isolate from cutaneous-lymphatic sporotrichosis patient after 72 hrs by ATB Fungus 2 method
Sporothrix schenckii [18] = assay: Antifungal activity against Sporothrix schenckii P24255 isolate from cutaneous-lymphatic sporotrichosis patient after 72 hrs by Sensititre YeastOne method
Sporothrix schenckii [19] = assay: Antifungal activity against Sporothrix schenckii isolate from cutaneous-lymphatic sporotrichosis patient after 72 hrs by modified NCCLS M38-A method
Candida parapsilosis [20] = assay: Antifungal activity against Candida parapsilosis ATCC 22019 […] after 72 hrs by Sensititre YeastOne method; settings: Lodderomyces parapsilosis, ATCC 22019, 72 h
Sporothrix schenckii [21] = assay: Antifungal activity against Sporothrix schenckii PJRC002 isolate from cutaneous-lymphatic sporotrichosis patient after 72 hrs by ATB Fungus 2 method
Sporothrix schenckii [22] = assay: Antifungal activity against Sporothrix schenckii P14954 isolate from cutaneous-lymphatic sporotrichosis patient after 72 hrs by Sensititre YeastOne method
Sporothrix schenckii [23] = assay: Antifungal activity against Sporothrix schenckii P1621 isolate from cutaneous-lymphatic sporotrichosis patient after 72 hrs by ATB Fungus 2 method
Sporothrix schenckii [24] = assay: Antifungal activity against Sporothrix schenckii P14036 isolate from cutaneous-lymphatic sporotrichosis patient after 72 hrs by ATB Fungus 2 method
Sporothrix schenckii [25] = assay: Antifungal activity against Sporothrix schenckii P30915 isolate from cutaneous-lymphatic sporotrichosis patient after 72 hrs by ATB Fungus 2 method
Sporothrix schenckii [26] = assay: Antifungal activity against Sporothrix schenckii isolate from cutaneous-lymphatic sporotrichosis patient after 72 hrs by ATB Fungus 2 method
Sporothrix schenckii [27] = assay: Antifungal activity against Sporothrix schenckii P10012 isolate from cutaneous-lymphatic sporotrichosis patient after 72 hrs by ATB Fungus 2 method
Sporothrix schenckii [28] = assay: Antifungal activity against Sporothrix schenckii P26187 isolate from cutaneous-lymphatic sporotrichosis patient after 72 hrs by Sensititre YeastOne method
Sporothrix schenckii [29] = assay: Antifungal activity against Sporothrix schenckii P26187 isolate from cutaneous-lymphatic sporotrichosis patient after 72 hrs by ATB Fungus 2 method
Sporothrix schenckii [30] = assay: Antifungal activity against Sporothrix schenckii SSA29 isolate from cutaneous-lymphatic sporotrichosis patient after 72 hrs by ATB Fungus 2 method
Sporothrix schenckii [31] = assay: Antifungal activity against Sporothrix schenckii P30915 isolate from cutaneous-lymphatic sporotrichosis patient after 72 hrs by Sensititre YeastOne method
Sporothrix schenckii [32] = assay: Antifungal activity against Sporothrix schenckii PGAC0016 isolate from cutaneous-lymphatic sporotrichosis patient after 72 hrs by Sensititre YeastOne method
Sporothrix schenckii [33] = assay: Antifungal activity against Sporothrix schenckii P24223 isolate from cutaneous-lymphatic sporotrichosis patient after 72 hrs by Sensititre YeastOne method
Sporothrix schenckii [34] = assay: Antifungal activity against Sporothrix schenckii P14036 isolate from cutaneous-lymphatic sporotrichosis patient after 72 hrs by Sensititre YeastOne method
Candida parapsilosis [35] = assay: Antifungal activity against Candida parapsilosis ATCC 22019 […] after 72 hrs by ATB Fungus 2 method; settings: Lodderomyces parapsilosis, ATCC 22019, 72 h
Sporothrix schenckii [36] = assay: Antifungal activity against Sporothrix schenckii PJRC002 isolate from cutaneous-lymphatic sporotrichosis patient after 72 hrs by Sensititre YeastOne method
Sporothrix schenckii [37] = assay: Antifungal activity against Sporothrix schenckii P1621 isolate from cutaneous-lymphatic sporotrichosis patient after 72 hrs by Sensititre YeastOne method
Sporothrix schenckii [38] = assay: Antifungal activity against Sporothrix schenckii PSCC1 isolate from cutaneous-lymphatic sporotrichosis patient after 72 hrs by Sensititre YeastOne method
Sporothrix schenckii [39] = assay: Antifungal activity against Sporothrix schenckii P24223 isolate from cutaneous-lymphatic sporotrichosis patient after 72 hrs by ATB Fungus 2 method
Sporothrix schenckii [40] = assay: Antifungal activity against Sporothrix schenckii isolate from cutaneous-lymphatic sporotrichosis patient after 72 hrs by Sensititre YeastOne method
Sporothrix schenckii [41] = assay: Antifungal activity against Sporothrix schenckii PSCC1 isolate from cutaneous-lymphatic sporotrichosis patient after 72 hrs by ATB Fungus 2 method
Sporothrix schenckii [42] = assay: Antifungal activity against Sporothrix schenckii P0019 isolate from cutaneous-lymphatic sporotrichosis patient after 72 hrs by ATB Fungus 2 method
Sporothrix schenckii [43] = assay: Antifungal activity against Sporothrix schenckii P0019 isolate from cutaneous-lymphatic sporotrichosis patient after 72 hrs by Sensititre YeastOne method
Sporothrix schenckii [44] = assay: Antifungal activity against Sporothrix schenckii P25013 isolate from cutaneous-lymphatic sporotrichosis patient after 72 hrs by ATB Fungus 2 method
Sporothrix schenckii [45] = assay: Antifungal activity against Sporothrix schenckii P10012 isolate from cutaneous-lymphatic sporotrichosis patient after 72 hrs by Sensititre YeastOne method
Pichia kudriavzevii [46] = assay: Antifungal activity against Candida krusei ATCC 6258 […] after 72 hrs by ATB Fungus 2 method; settings: ATCC 6258, 72 h
Sporothrix schenckii [47] = assay: Antifungal activity against Sporothrix schenckii MRSS4 isolate from cutaneous-lymphatic sporotrichosis patient after 72 hrs by Sensititre YeastOne method

How did the MIC (Sporothrix schenckii [1]) turn out when `Nc1nc(=O)[nH]cc1F` [FLUCYTOSINE] was run?
The MIC was 64 µg/mL (≈ 496 µM).

And the MIC (Sporothrix schenckii [2])?
The MIC was 1 µg/mL (≈ 7.75 µM).

And the MIC (Sporothrix schenckii [3])?
The MIC was 32 µg/mL (≈ 248 µM).

What about the MIC (Sporothrix schenckii [4]) of the same molecule?
The MIC was 16 µg/mL (≈ 124 µM).

And the MIC (Sporothrix schenckii [5])?
Its MIC is 32 µg/mL (≈ 248 µM).

And the MIC (Sporothrix schenckii [6])?
The MIC was over 64 µg/mL.

And the MIC (Sporothrix schenckii [7])?
The MIC was 1 µg/mL (≈ 7.75 µM).

What about the MIC (Sporothrix schenckii [8]) of the same molecule?
Its MIC is 16 µg/mL (≈ 124 µM).

What about the MIC (Candida parapsilosis [9]) of the same molecule?
Its MIC is 0.5 µg/mL (≈ 3.87 µM).

What about the MIC (Sporothrix schenckii [10]) of the same molecule?
Its MIC is over 64 µg/mL.

And the MIC (Pichia kudriavzevii [11])?
The MIC was 16 µg/mL (≈ 124 µM).

What about the MIC (Sporothrix schenckii [12]) of the same molecule?
The MIC was 64 µg/mL (≈ 496 µM).

And the MIC (Sporothrix schenckii [13])?
The MIC was 4 µg/mL (≈ 31 µM).

And the MIC (Sporothrix schenckii [14])?
The MIC was over 64 µg/mL.

And the MIC (Pichia kudriavzevii [15])?
The MIC was 32 µg/mL (≈ 248 µM).

And the MIC (Sporothrix schenckii [16])?
The MIC was 8 µg/mL (≈ 62 µM).

What about the MIC (Sporothrix schenckii [17]) of the same molecule?
Its MIC is over 64 µg/mL.

And the MIC (Sporothrix schenckii [18])?
The MIC was 16 µg/mL (≈ 124 µM).

What about the MIC50 (Sporothrix schenckii [19]) of the same molecule?
The MIC50 was over 64 µg/mL.

And the MIC (Candida parapsilosis [20])?
Its MIC is 1 µg/mL (≈ 7.75 µM).

And the MIC (Sporothrix schenckii [21])?
The MIC was 64 µg/mL (≈ 496 µM).

What about the MIC (Sporothrix schenckii [22]) of the same molecule?
The MIC was 32 µg/mL (≈ 248 µM).

And the MIC (Sporothrix schenckii [23])?
Its MIC is 8 µg/mL (≈ 62 µM).

What about the MIC (Sporothrix schenckii [24]) of the same molecule?
Its MIC is 64 µg/mL (≈ 496 µM).

What about the MIC (Sporothrix schenckii [25]) of the same molecule?
The MIC was over 64 µg/mL.

What about the MIC50 (Sporothrix schenckii [26]) of the same molecule?
The MIC50 was 64 µg/mL (≈ 496 µM).

What about the MIC90 (Sporothrix schenckii [26]) of the same molecule?
The MIC90 was over 64 µg/mL.

And the MIC (Sporothrix schenckii [27])?
The MIC was 64 µg/mL (≈ 496 µM).

What about the MIC (Sporothrix schenckii [28]) of the same molecule?
Its MIC is 8 µg/mL (≈ 62 µM).

What about the MIC (Sporothrix schenckii [29]) of the same molecule?
Its MIC is 64 µg/mL (≈ 496 µM).

What about the MIC (Sporothrix schenckii [30]) of the same molecule?
Its MIC is 32 µg/mL (≈ 248 µM).

What about the MIC (Sporothrix schenckii [31]) of the same molecule?
Its MIC is 16 µg/mL (≈ 124 µM).

And the MIC (Sporothrix schenckii [32])?
Its MIC is 16 µg/mL (≈ 124 µM).

What about the MIC (Sporothrix schenckii [33]) of the same molecule?
Its MIC is 16 µg/mL (≈ 124 µM).

What about the MIC (Sporothrix schenckii [34]) of the same molecule?
The MIC was 32 µg/mL (≈ 248 µM).

And the MIC (Candida parapsilosis [35])?
Its MIC is 1 µg/mL (≈ 7.75 µM).

What about the MIC (Sporothrix schenckii [36]) of the same molecule?
The MIC was 8 µg/mL (≈ 62 µM).

And the MIC (Sporothrix schenckii [37])?
Its MIC is 8 µg/mL (≈ 62 µM).

And the MIC (Sporothrix schenckii [38])?
Its MIC is over 64 µg/mL.

What about the MIC (Sporothrix schenckii [39]) of the same molecule?
The MIC was over 64 µg/mL.

And the MIC50 (Sporothrix schenckii [40])?
The MIC50 was 16 µg/mL (≈ 124 µM).

What about the MIC90 (Sporothrix schenckii [40]) of the same molecule?
Its MIC90 is 32 µg/mL (≈ 248 µM).

And the MIC (Sporothrix schenckii [41])?
The MIC was over 64 µg/mL.

And the MIC (Sporothrix schenckii [42])?
The MIC was over 64 µg/mL.

And the MIC (Sporothrix schenckii [43])?
Its MIC is 16 µg/mL (≈ 124 µM).

And the MIC (Sporothrix schenckii [44])?
The MIC was 64 µg/mL (≈ 496 µM).

And the MIC (Sporothrix schenckii [45])?
Its MIC is 8 µg/mL (≈ 62 µM).

What about the MIC (Pichia kudriavzevii [46]) of the same molecule?
Its MIC is 32 µg/mL (≈ 248 µM).

And the MIC (Sporothrix schenckii [47])?
The MIC was 16 µg/mL (≈ 124 µM).
